Assay results: patent publication US5208032A, “Increasing the growth of turkeys using implant of 19-nortestosterone” (Rutgers, The State University of New Jersey, priority 1992, dated 1993)

Assay: Comparison of effects on growth in intact male and female White Leghorn chickens (Study II, Table 1)
Type: in vivo
Settings: for 6-week Body Weight Change / 12-week Body Weight Change / 12-week Shank-Toe Length Change: 1.0-cm implant, vs cholesterol control, (decrease); for 6-week Body Weight / 12-week Body Weight (final) / 12-week Shank-Toe Length: 1.0-cm s.c. implant
Method: The single comb White Leghorn strain (Dekalb XL) of chicken (Avian Services, Frenchtown, N.J.) was used in all studies. Chicks were obtained on the day following hatch and were then maintained in a well ventilated, temperature- and humidity-controlled animal room. Chicks were housed in temperature-controlled (access to small brood chambers--32° to 35° C.), wire-floored, 5-tier brooder batteries (measuring 0.74 W×1.55 L×0.27 H m per tier) until termination of respective studies. A 12 hour light:12 hour dark photoperiod was maintained at all times within the animal room. Feed and water were available ad libitum, with a standard commercial diet (Agway; Bordentown, N.J.), chick starter mash, fed to chicks 1 to 42 days of age, and then from 43 to 84 days, grower mash was provided (manufacturer statement on ration compositions are shown in Table 2).
In all studies, chicks were rank-ordered by weight, wing-banded and distributed into treatment groups of equal body weights at 14 days of age. Excluding Study I, e.g., in which male, female and castrate male comparisons were made, all control groups were implanted with 1.0-cm length cholesterol-filled Silastic polysiloxane implants (i.e., steroid surface exposure of 1.0-cm; actual length was 2.0-cm with 1/2 cm wood dowel plugs placed at each end of implant). The remaining treatment groups consisted of chicks (male, female or castrated male) implanted with either testosterone-, 5-alpha-DHT-, 5-beta-DHT-, estradiol-17-beta-, or 19-nortestosterone-filled Silastic polysiloxane implants with steriod surface exposures of either 0.3, 1.0 or 3.0 cm in length. Steroid implants were prepared by manually packing respective crystalline steroids (Steraloids; Wilton, N.H.) into Silastic Medical Grade tubing (1.57 mm i.d.; Dow Corning) (Smith et al., 1977). The amounts of steroid contained in the implants were as follows (mean±SEM of 20 randomly chosen implants, 5 for each steroid): 2.6±0.2 mg (0.3-cm), 8.9±0.4 mg (1.0-cm), and 29.2±0.7 mg 3.0-cm). At the time of group assignment, implants were placed in the subcutaneous (S.C.) layer of skin behind the neck. Supplemental steroid implants (containing doses of steroids equivalent to those of the initial implants) were implanted at 6 and 10 weeks of age, without removal of prior implants, to ensure adequate androgen replacement with increasing growth. Cage floors and fecal collection trays were checked for 2 consecutive days following each implantation session to ensure completeness of procedure. […] An outline of individual studies along with experimental treatments (i.e., type and dose of steroid) and number of birds per treatment group is given in Table 3.
Body weight and shank-toe length (King, 1969; combined length of metatarsus and longest toe which is an estimate of bone growth) were measured at weekly (or biweekly in Study I) intervals from the beginning through the end of each study. At the termination of studies I (12 weeks of age), III (12 weeks of age), IV (12 weeks of age) and V (6 weeks of age), several organs were excised and immediately weighed at necropsy. Relative tissue weights (percent of final body weight) and body weight minus [comb plus wattle weights] (i.e., final adjusted body weight) were also calculated. Excluding Study I, biweekly blood samples were obtained by venipuncture of the wing vein from the same individual birds for respective treatments. After centrifugation of whole blood, plasma was removed and stored at -20° C. until hormone assays were performed.
^a Steroid treatments entailed the subcutaneous implantation (between
the shoulders) of 1.0 cm length, silastic implants (crystalline steroids
at 2, 6 and 10 weeks of age.)

Row | Compound | 6-week Body Weight Change (intact female) [%] | 12-week Body Weight Change (intact female) [%] | 12-week Shank-Toe Length Change (intact female) [%] | 6-week Body Weight (intact female) [g] | 12-week Body Weight (final) (intact female) [g] | 12-week Shank-Toe Length (intact female) [cm] | 6-week Body Weight Change (intact male) [%] | 12-week Body Weight Change (intact male) [%] | 12-week Shank-Toe Length Change (intact male) [%] | 6-week Body Weight (intact male) [g] | 12-week Body Weight (final) (intact male) [g] | 12-week Shank-Toe Length (intact male) [cm]
1 | C[C@]12CC[C@H]3[C@@H](CCC4=CC(=O)CC[C@@]43C)[C@@H]1CC[C@@H]2O [Testosterone, testosterone] | 5.8 | 5.1 | 2.6 | 553 ± 11 | 1067 ± 22 | 14.7 ± 0.09 | 9.4 | 8.6 | 3.1 | 585 ± 13 | 1275 ± 27 | 16.5 ± 0.17
2 | C[C@]12CCC(=O)C[C@@H]1CC[C@@H]1[C@@H]2CC[C@]2(C)[C@@H](O)CC[C@@H]12 [5-alpha-DHT, 5-alpha-dihydrotestosterone] | 9.9 | 6.5 | 3.3 | 529 ± 12 | 1051 ± 15 | 14.6 ± 0.12 | 17.2 | 16.1 | 7.0 | 535 ± 27 | 1171 ± 50 | 15.9 ± 0.24
